Source: patent US20210154317A1, “COMPOSITIONS AND METHODS FOR THE TREATMENT OF VIRAL INFECTIONS” (Silverback Therapeutics, Inc., priority 2017, published 2021)

Tested on: monax PBMC
Test: Marmota TNFα expression in stimulated PBMC by real time PCR
Type: cell-based
Conditions: TaqMan real time PCR
Description: Total RNA was extracted from stimulated monax PBMC using the RNeasy®Mini kit (Qiagen, Maryland, MD) according to the manufacturer's protocol. Briefly, cells were pelleted and resuspended in 600 ul RLT buffer. The sample was vortexed and then run through a QIAshredder column. RNA was extracted from the supernatant and eluted with a 30 uL volume. RNA purity was assessed (A260/A280) using a Nanodrop one spectrophotometer (Thermofisher Scientific, Waltham, Mass., USA). For removal of genomic DNA, 800 ng RNA was incubated with 2 units DNase I (RNase-free) (New England Biolabs, Ipswich, Mass., USA) in DNase reaction buffer at 37° C. for 10 min. […]
The generation of oligonucleotide dimers for each TaqMan primer pair was assessed using Power SYBR®Green PCR Master-Mix (Foster City, Calif., Applied Biosystems) with melting curve analysis, according to the manufacturer's instructions. […] Data were analyzed using the Step One Software to generate Ct value for each sample.
A plot of Ct versus log copy number standard curve was generated using synthesized monax TNFα cDNA standard. The Ct value for each data point was then determined and normalized to the standard curve to obtain the copy number. […]

## CCCN(CCC)C(=O)C1=Cc2ccc(C(=O)Nc3cnc4c(c3)CNCC4)cc2N=C(N)C1 [Compound 1.50, 2-amino-N^4,N^4-dipropyl-N^8-(5,6,7,8-tetrahydro-1,6-naphthyridin-3-yl)-3H-benzo[b]azepine-4,8-dicarboxamide]
  monax TNFα gene activation (copy number per ng of mRNA): potent activation

## CCOCc1nc2c(N)nc3ccccc3c2n1CC(C)(C)OCCNC(=O)C(C)(C)N
  monax TNFα gene activation (copy number per ng of mRNA): potent activation
